What was measured:
[1] = tested on: SMN2 minigene mRNA (SMN2-A minigene) in HEK293H cells; assay: SMN2 minigene mRNA splicing RT-qPCR assay in cultured cells; type: cell-based, human; details: Homo sapiens, HEK293-H; concentration increasing full length SMN2 mRNA 1.5-fold relative to vehicle-treated cells; HEK293H cells with SMN2-A minigene, 24 hours, 7-point concentration data; read-out: EC1.5x for production of full length SMN2 mRNA
Outline: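 Potency reflects the concentration that lifts full-length SMN2 minigene mRNA 1.5-fold above vehicle in stably transfected HEK293H cells after 24 h of treatment. Transcript abundance came from RT-qPCR as (1+E)^−Ct, normalized to GAPDH; endogenous SMN1/SMN2 are not detected.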

[2] = tested on: Smn protein in SMA patient fibroblast cells (GM03813); assay: Smn protein assay in cultured cells (SMN HTRF); type: cell-based, human; details: SMA patient fibroblast cells, 48 hours; for maximum fold (Fold) increase of Smn protein: 7-point concentration data, fold relative to vehicle control; for EC1.5x for Smn protein expression: 7-point concentration curve, SMN HTRF, concentration producing 1.5 times Smn protein vs DMSO vehicle control
Outline: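 Smn protein abundance in treated SMA fibroblasts was measured by HTRF after 48 h compound exposure. The reported EC1.5× is the concentration producing 1.5 times vehicle Smn levels.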

SMILES	EC (1.5-fold increase) [1] [µM]	maximum fold (Fold) increase of Smn protein [2]	EC1.5x for Smn protein expression [2]
COc1ccc(-c2cc(=O)n3cc(N4CCNC[C@H]4C)ccc3n2)cc1OC [Compound 321, 2-(3,4-dimethoxyphenyl)-7-[(2R)-2-methylpiperazin-1-yl]-4H-pyrido[1,2-a]pyrimidin-4-one]	1 to 3	*** (a fold increase between >1.35 and ≤1.5 is indicated by three stars (***))	–
Cc1nc2ccc(-c3cc(=O)n4cc(N5CCN(C)CC5)ccc4c3)cc2o1 [Compound 323, 2-(2-methyl-1,3-benzoxazol-6-yl)-7-(4-methylpiperazin-1-yl)-4H-quinolizin-4-one]	0.1 to 0.3	*** (a fold increase between >1.35 and ≤1.5 is indicated by three stars (***))	** (an EC1.5× between >1 μM and ≤3 μM is indicated by two stars (**))
Cc1cn2nc(-c3cc(=O)n4cc(N5CCN[C@H](C)C5)ccc4n3)cc2c(C)n1 [Compound 335, 2-(4,6-dimethylpyrazolo[1,5-a]pyrazin-2-yl)-7-[(3R)-3-methylpiperazin-1-yl]-4H-pyrido[1,2-a]pyrimidin-4-one]	< 0.1	***** (a fold increase >1.65 is indicated by five stars (*****))	**** (an EC1.5x≤0.3 μM is indicated by four stars (****))
CCN1CCN(c2ccc3nc(-c4cc5c(C)nc(C)cn5n4)cc(=O)n3c2)C[C@H]1C [Compound 343, 2-(4,6-dimethylpyrazolo[1,5-a]pyrazin-2-yl)-7-[(3R)-4-ethyl-3-methylpiperazin-1-yl]-4H-pyrido[1,2-a]pyrimidin-4-one]	< 0.1	***** (a fold increase >1.65 is indicated by five stars (*****))	**** (an EC1.5x≤0.3 μM is indicated by four stars (****))
Cc1nc2cc(-c3cc(=O)n4cc(N5C[C@H]6CNC[C@H]6C5)ccc4n3)ccc2s1 [Compound 349, 7-[(3aR,6aS)-hexahydropyrrolo[3,4-c]pyrrol-2(1H)-yl]-2-(2-methyl-1,3-benzothiazol-5-yl)-4H-pyrido[1,2-a]pyrimidin-4-one]	< 0.1	*** (a fold increase between >1.35 and ≤1.5 is indicated by three stars (***))	** (an EC1.5× between >1 μM and ≤3 μM is indicated by two stars (**))
Cc1cn2nc(-c3cc(=O)n4cc(C5=CCN(C6CC6)CC5)ccc4n3)cc2c(C)n1 [Compound 354, 7-(1-cyclopropyl-1,2,3,6-tetrahydropyridin-4-yl)-2-(4,6-dimethylpyrazolo[1,5-a]pyrazin-2-yl)-4H-pyrido[1,2-a]pyrimidin-4-one]	< 0.1	**** (a fold increase between >1.5 and ≤1.65 is indicated by four stars (****))	*** (an EC1.5× between >0.3 μM and ≤1 μM is indicated by three stars (***))
Cc1cn2nc(-c3cc(=O)n4cc(C5=CCN(C6COC6)CC5)ccc4n3)cc2c(C)n1 [Compound 357, 2-(4,6-dimethylpyrazolo[1,5-a]pyrazin-2-yl)-7-[1-(oxetan-3-yl)-1,2,3,6-tetrahydropyridin-4-yl]-4H-pyrido[1,2-a]pyrimidin-4-one]	0.1 to 0.3	**** (a fold increase between >1.5 and ≤1.65 is indicated by four stars (****))	*** (an EC1.5× between >0.3 μM and ≤1 μM is indicated by three stars (***))
CNC1CCN(c2cc(C)c3nc(-c4ccc(OC)c(OC)c4)cc(=O)n3c2)CC1 [Compound 358, 2-(3,4-dimethoxyphenyl)-9-methyl-7-[4-(methylamino)piperidin-1-yl]-4H-pyrido[1,2-a]pyrimidin-4-one]	< 0.1	*** (a fold increase between >1.35 and ≤1.5 is indicated by three stars (***))	** (an EC1.5× between >1 μM and ≤3 μM is indicated by two stars (**))
CCNC1CCN(c2cc(C)c3nc(-c4ccc(OC)c(OC)c4)cc(=O)n3c2)CC1 [Compound 359]	< 0.1	*** (a fold increase between >1.35 and ≤1.5 is indicated by three stars (***))	** (an EC1.5× between >1 μM and ≤3 μM is indicated by two stars (**))
COc1ccc(-c2cc(=O)n3cc(N4CCC(NC(C)C)CC4)ccc3n2)cc1OC [Compound 361, 2-(3,4-dimethoxyphenyl)-7-[4-(propan-2-ylamino)piperidin-1-yl]-4H-pyrido[1,2-a]pyrimidin-4-one]	0.1 to 0.3	*** (a fold increase between >1.35 and ≤1.5 is indicated by three stars (***))	–
Cc1cn2cc(-c3ccc4nc(C5=CCNCC5)cc(=O)n4c3)cc(F)c2n1 [Compound 372, 7-(8-fluoro-2-methylimidazo[1,2-a]pyridin-6-yl)-2-(1,2,3,6-tetrahydropyridin-4-yl)-4H-pyrido[1,2-a]pyrimidin-4-one]	< 0.1	***** (a fold increase >1.65 is indicated by five stars (*****))	**** (an EC1.5x≤0.3 μM is indicated by four stars (****))
CCN1CC=C(c2cc(C)c3nc(-c4ccc(OC)c(OC)c4)cc(=O)n3c2)CC1 [Compound 388, 2-(3,4-dimethoxyphenyl)-7-(1-ethyl-1,2,3,6-tetrahydropyridin-4-yl)-9-methyl-4H-pyrido[1,2-a]pyrimidin-4-one]	< 0.1	*** (a fold increase between >1.35 and ≤1.5 is indicated by three stars (***))	–
COc1ccc(-c2cc(=O)n3cc(N4CCN5CCC[C@@H]5C4)cc(C)c3n2)cc1OC [Compound 414, 2-(3,4-dimethoxyphenyl)-7-[(8aR)-hexahydropyrrolo[1,2-a]pyrazin-2(1H)-yl]-9-methyl-4H-pyrido[1,2-a]pyrimidin-4-one]	< 0.1	***** (a fold increase >1.65 is indicated by five stars (*****))	*** (an EC1.5× between >0.3 μM and ≤1 μM is indicated by three stars (***))
Cc1nc2ccc(-c3cc(=O)n4cc(C5=CCNCC5)ncc4n3)cc2o1.Cl [Compound 421, 2-(2-methyl-1,3-benzoxazol-6-yl)-7-(1,2,3,6-tetrahydropyridin-4-yl)-4H-pyrazino[1,2-a]pyrimidin-4-one hydrochloride (1:1)]	< 0.1	*** (a fold increase between >1.35 and ≤1.5 is indicated by three stars (***))	–
Cc1cn2nc(-c3cc(=O)n4cc(C5CCNCC5)ccc4n3)cc2c(C)n1 [Compound 452, 2-(4,6-dimethylpyrazolo[1,5-a]pyrazin-2-yl)-7-(piperidin-4-yl)-4H-pyrido[1,2-a]pyrimidin-4-one]	< 0.1	***** (a fold increase >1.65 is indicated by five stars (*****))	**** (an EC1.5x≤0.3 μM is indicated by four stars (****))
Cn1ncc2cc(-c3cc(=O)n4cc(C5=CCN(CCO)CC5)ccc4n3)ccc21 [Compound 471, 7-[1-(2-hydroxyethyl)-1,2,3,6-tetrahydropyridin-4-yl]-2-(1-methyl-1H-indazol-5-yl)-4H-pyrido[1,2-a]pyrimidin-4-one]	< 0.1	***** (a fold increase >1.65 is indicated by five stars (*****))	**** (an EC1.5x≤0.3 μM is indicated by four stars (****))
Cc1cn2nc(-c3cc(=O)n4cc(C5=CCN(C)CC5)cc(C)c4n3)cc2c(C)n1 [Compound 481, 2-(4,6-dimethylpyrazolo[1,5-a]pyrazin-2-yl)-9-methyl-7-(1-methyl-1,2,3,6-tetrahydropyridin-4-yl)-4H-pyrido[1,2-a]pyrimidin-4-one]	< 0.1	**** (a fold increase between >1.5 and ≤1.65 is indicated by four stars (****))	**** (an EC1.5x≤0.3 μM is indicated by four stars (****))
CCN1CC=C(c2cc(C)c3nc(-c4cc5c(C)nc(C)cn5n4)cc(=O)n3c2)CC1 [Compound 482, 2-(4,6-dimethylpyrazolo[1,5-a]pyrazin-2-yl)-7-(1-ethyl-1,2,3,6-tetrahydropyridin-4-yl)-9-methyl-4H-pyrido[1,2-a]pyrimidin-4-one]	< 0.1	*** (a fold increase between >1.35 and ≤1.5 is indicated by three stars (***))	* (An EC1.5× for Smn protein expression between >3 μM and ≤10 μM is indicated by one star (*))
Cc1cn2nc(-c3cc(=O)n4cc(C5=CCN(C6CC6)CC5)cc(C)c4n3)cc2c(C)n1 [Compound 483, 7-(1-cyclopropyl-1,2,3,6-tetrahydropyridin-4-yl)-2-(4,6-dimethylpyrazolo[1,5-a]pyrazin-2-yl)-9-methyl-4H-pyrido[1,2-a]pyrimidin-4-one]	< 0.1	** (a fold increase between >1.2 and ≤1.35 is indicated by two stars (**))	–
CCN1CC=C(c2ccc3nc(-c4cc5cnc(C)cn5n4)cc(=O)n3c2)CC1 [Compound 485, 7-(1-ethyl-1,2,3,6-tetrahydropyridin-4-yl)-2-(6-methylpyrazolo[1,5-a]pyrazin-2-yl)-4H-pyrido[1,2-a]pyrimidin-4-one]	< 0.1	***** (a fold increase >1.65 is indicated by five stars (*****))	**** (an EC1.5x≤0.3 μM is indicated by four stars (****))

Source: patent US11753407B2, “Compounds for treating spinal muscular atrophy” (PTC Therapeutics, Inc., priority 2012, dated 2023)
